Key:
[1] = acute toxicity in the rat, by the oral route; conditions: in vivo, single dose
Excerpt: The acute toxicity is expressed by the lethal dose 50, that is to say the dose resulting in the death of 50% of the animals.
This study has been carried out on groups of 10 Swiss male mice whose weight varied from 24 to 26 g, and on groups of six Wistar male rats of 120 to 125 g.
The administration was made in a single dose by the oral route in the rats and the mice, and also by the intravenous route in the case of the mice.

SHAY ulcer = experiment: anti-ulcer activity: SHAY ulcer (ligature of the pylorus); assay type: in vivo, rat; conditions: 100 mg/kg oral, 1 hour before ligature of the pylorus, versus controls
Description: (§1) The compound according to the invention was studied for its preventive properties with respect to ulcers generated by various means. Thus the ratio in the reduction of gastric attacks caused by acetyl salicylic acid and phenylbutazone was determined, as well as the ratio in the reduction of stress ulcers and SHAY ulcers, or again vasomotor reactions to polymyxine B.
(§2) For these tests, male Wistar rats were used (from 250 to 350 g according to the test). For each test and each dose, 10 animals at least were treated.
The SHAY ulcer was produced in the fasting rat after 48 hours. 47 hours after the beginning of the fast, by the oral route, 100 mg/kg of the product to be tested was administered, then, 1 hour later, ligature of the pylorus was effected after light anesthesia with ether. The sacrifice of the animals took place 12 to 24 hours after the ligature.
(§3) In all the preceding tests, the results were obtained by examination of the gastric mucous membrane to determine the presence either of a congested area, or of more or less serious ulcerations.
(§4) Study of the levels of reduction of attacks in the treated animals, with respect to the controls, was effected by the method of O. FOUSSARD and G. […] (Therapie, 1972, 27, 705-721) applying the formula of J. M. LWOFF (J. Pharmacol., 1971, 2, 1, 81-83).

stress ulcer = experiment: anti-ulcer activity: stress ulcer (total immobilization); assay type: in vivo, rat; conditions: 50 mg/kg oral, 1 hour before 18 hours immobilization; versus controls
Description: as §1, §2
For the stress ulcer, the rats, 1 hour after having received 50 mg/kg of the product according to the invention by the oral route, were totally immobilized for 18 hours in a cylindrical wire cage, according to the technique of ROSSI (C.R. Soc. Biol., 1956, 150, 2124-2126) and BONFILS (C.R. Soc. Biol., 1957, 151, 1149-1150). They were then sacrificed and examined.
as §3, §4

[2] = system: vasomotor lesions and hemorhagia of the glandular portion of the stomach; experiment: anti-ulcerogenic action against polymyxine B vasomotor lesions; assay type: in vivo, rat; conditions: 100 mg/kg oral before 1.5 mg/kg polymyxine B intraperitoneal; sacrifice two hours later; 15 rats versus 15 controls
Description: as §1, §2
In the tests with polymyxine B, 100 mg/kg of the compound according to the invention was administered by the oral route before the intraperitoneal injection of 1.5 mg/kg of polymyxine B, then, two hours later after this last injection, the rats were sacrificed. The injection of polymyxine B has the effect of causing vasomotor lesions and hemorhagia of the glandular portion of the stomach. It is by measurement of the extent of these lesions that the anti-ulcerogenic action of the compound was determined (A. BELL and Coll., Biologie et gastro-enterologie, 1969, 2, 117-126-Suppt. No. 2 aux Archives francaises des maladies de l'appareil digestif, 1969, 58, 10-11, October-November).

[3] = system: acetyl salicylic acid ulcer; experiment: anti-ulcer activity: acetyl salicylic acid ulcer; assay type: in vivo, rat; conditions: 50 mg/kg oral, 1 hour before 50 mg/kg AAS oral; sacrifice 24 hours later; versus controls
Description: as §1, §2
(§5) In the case of acetyl salicylic acid (AAS) and of phenylbutazone, the test procedure was as follows:
(§6) administration by the oral route of 50 mg/kg of the compound in aqueous solution with 3% of gum arabic after 23 hours fasting;
(§7) initiation of ulcerogenesis 1 hour later, by the administration of 50 mg/kg of AAS by the oral route or of 100 mg/kg of phenylbutazone by the intraperitoneal route;
(§8) sacrifice of the animals 24 hours later and examination of the gastric mucous membrane.
(§9) The control animals only received AAS or phenylbutazone.
as §3
(§10) Study of the levels of reduction of attacks in the treated animals, with respect to the controls, was effected by the method of O. FOUSSARD and G. […]

phenylbutazone ulcer = experiment: anti-ulcer activity: phenylbutazone ulcer; assay type: in vivo, rat; conditions: 50 mg/kg oral, 1 hour before 100 mg/kg phenylbutazone intraperitoneal; sacrifice 24 hours later; versus controls
Description: as §1, §2, §5, §6, §7, §8, §9, §3, §10

SMILES: CCN1CCCC1CNS(=O)(=O)c1cc(Cl)c(N)cc1OC (stereo not shown) [(I), chloro-5 methoxy-2 amino-4 N-(N-ethyl methyl-2 pyrrolidino) benzenesulfonamide]
- LD50 [1]: 1500 mg/kg
- level of reduction of attacks, SHAY ulcer, after 12 hours of ligature (SHAY ulcer; 12 hours of ligature): 60.4%
- level of reduction of attacks, SHAY ulcer, after 24 hours of ligature (SHAY ulcer; 24 hours of ligature): 46.1%
- level of reduction of attacks, stress ulcer (stress ulcer): 50.8%
- reduction in the lesions (polymyxine B) [2]: ~63%
- level of reduction of attacks, acetyl salicylic acid ulcer [3]: 40.0%
- level of reduction of attacks, phenylbutazone ulcer (phenylbutazone ulcer): 46.9%

— patent US4225611A, “Novel n-substituted benzenesulfonamide, process for its preparation and medicaments containing it” (Choay S.A., priority 1977, dated 1980)
